US10570148B2, “N-alkyl-2-phenoxyethanamines, their preparation and use” (The Trustees of Columbia University In the City of New York, priority 2013, dated 2020)

Key:
[1] = target: T1, RBP4-TTR interaction (Homo sapiens, UniProt P02753); assay: TR-FRET (HTRF) assay for retinol-induced RBP4-TTR interaction; type: biochemical; parameters: human RBP4 fragment (amino acids 19-201); host or cells: Gold(DE3)pLysS E. coli strain (Stratagene), pMAL-c4x vector; conditions: analogs, present-tense paper example
Text: TR-FPET Assay for Retinol-induced RBP4-TTR Interaction
Binding of a desired RBP4 antagonist displaces retinol and induces hindrance for RBP4-TTR interaction resulting in the decreased FRET signal (FIG. 7). Bacterially expressed MBP-RBP4 and untagged TTR were used in this assay. For the use in the TR-FRET assay the maltose binding protein (MBP)-tagged human RBP4 fragment (amino acids 19-201) was expressed in the Gold(DE3)pLysS E. coli strain (Stratagene) using the pMAL-c4x vector. Following cell lysis, recombinant RBP4 was purified from the soluble fraction using the ACTA FPLC system (GE Healthcare) equipped with the 5-ml the MBP Trap HP column. Human untagged TTR was purchased from Calbiochem. Untagged TTR was labeled directly with Eu^3+ Cryptate-NHS using the HTRF Cryptate Labeling kit from CisBio following the manufacturer's recommendations. HTRF assay was performed in white low volume 384 well plates (Greiner-Bio) in a final assay volume of 16 μl per well. The reaction buffer contained 10 mM Tris-HCl pH 7.5, 1 mM DTT, 0.05% NP-40, 0.05% Prionex, 6% glycerol, and 400 mM KF. Each reaction contained 60 nM […] and 2 nM TTR-Eu along with 26.7 nM of anti-MBP antibody conjugated with d2 (Cisbio). Titration of test compounds in this assay was conducted in the presence of 1 μM retinol. All reactions were assembled in the dark under dim red light and incubated overnight at +4° C. wrapped in aluminum foil. TR-FRET signal was measured in the SpectraMax M5e Multimode Plate Reader (Molecular Device). Fluorescence was excited at 337 nm and two readings per well were taken: Reading 1 for time-gated energy transfer from Eu(K) to d2 (337 nm excitation, […] emission, counting delay 75 microseconds, counting window 100 microseconds) and Reading 2 for Eu(K) time-gated fluorescence (337 nm excitation, 620 rum emission, counting delay 400 microseconds, counting window 400 microseconds). The TR-FRET signal was expressed as the ratio of fluorescence intensity: Flu665/Flu620×10,000.

[2] = target: T2, RBP4 (Homo sapiens, UniProt P02753); assay: Scintillation proximity RBP4 binding assay (SPA); parameters: Untagged human RBP4 purified from urine of tubular proteinuria patients; purchased Fitzgerald Industries International; host or cells: urine of tubular proteinuria patients; conditions: analogs, present-tense paper example
Experimental: Scintillation Proximity RBP4 Binding Assay
Untagged human RBP4 purified from urine of tubular proteinuria patients was purchased from Fitzgerald Industries International. It was biotinylated using the EZ-Link Sulfo-NHS-LC-Biotinylation kit from Pierce following the manufacturer's recommendations. Binding experiments were performed in 96-well plates (OptiPlate, PerkinElmer) in a final assay volume of 100 μl per well in SPA buffer (1×PBS, pH 7.4, 1 mM EDTA, 0.1% BSA, 0.5% CHAPS). The reaction mix contained 10 nM ^3H-Retinol (48.7 Ci/mmol; PerkinElmer), 0.3 mg/well Streptavidin-PVT beads, 50 nM biotinylated RBP4 and a test compound. Nonspecific binding was determined in the presence of 20 µM of unlabeled retinol. The reaction mix was assembled in the dark under dim red light. The plates were sealed with clear tape (TopSeal-A: 96-well microplate, PerkinElmer), wrapped in the aluminum foil, and allowed to equilibrate 6 hours at room temperature followed by overnight incubation at +4° C. Radiocounts were measured using a TopCount NXT counter (Packard Instrument Company).

[3] = target: T2, RBP4; conditions: cited from earlier work
[4] = target: T1, RBP4-TTR interaction; conditions: cited from earlier work
[5] = in vivo; cited from earlier work
[6] = tested on: Abca4−/− mice; conditions: cited from earlier work
[7] = tested on: retinal pigment epithelium cells; conditions: many cell types, including the retinal pigment epithelium cells; cited from earlier work
[8] = tested on: mice; conditions: cited from earlier work

Question: For `CN(CCOc1ccccc1C(C)(C)C)C(=O)c1c[nH]nn1` [Compound 12, N-(2-(2-(Tert-butyl)phenoxy)ethyl)-N-methyl-1H-1,2,3-triazole-5-carboxamide], which melting point is on record?
Answer: The melting point was 148 to 151 °C.

Question: Which melting point does the source give for `CN(CCOc1ccccc1C(C)(C)C)C(=O)C(=O)O` [Compound 13, 2-((2-(2-(Tert-butyl)phenoxy)ethyl)(methyl)amino)-2-oxoacetic Acid] here?
Answer: Its melting point is 98 to 101 °C.

Question: For `CC(C)c1ccccc1OCCN(C)C(=O)Nc1ccccc1C(=O)O` [Compound 17, 2-(3-(2-(2-Isopropylphenoxy)ethyl)-3-methylureido)benzoic Acid], which melting point is on record?
Answer: Its melting point is 146 to 149 °C.

Question: With `CN(CCOc1ccccc1C(C)(C)C)C(=O)Nc1ccncc1C(=O)O` [Compound 18, 4-(3-(2-(2-(tert-butyl)phenoxy)ethyl)-3-methylureido)nicotinic Acid] as the molecule, how does the melting point read?
Answer: Its melting point is 218 to 220 °C.

Question: Which melting point does the source give for `CN(CCOc1ccc(Cl)cc1C(C)(C)C)C(=O)c1cn2ncccc2n1` [Compound 21, N-(2-(2-(tert-butyl)-4-chlorophenoxy)ethyl)-N-methylimidazo[1,2-b]pyridazine-2-carboxamide] here?
Answer: The melting point was 73 to 78 °C.

Question: Which melting point does the source give for `CN(CCOc1ccccc1C(C)(C)C)C(=O)c1n[nH]c2ccc(F)cc12` [Compound 22, N-(2-(2-(tert-butyl)phenoxy)ethyl)-5-fluoro-N-methyl-1H-indazole-3-carboxamide] here?
Answer: Its melting point is 186 to 190 °C.

Question: With `CN(CCOc1ccccc1C(C)(C)C)C(=O)c1cn2ncccc2n1` [Compound 23, N-(2-(2-(Tert-butyl)phenoxy)ethyl)-N-methylimidazo[1,2-b]pyridazine-2-carboxamide] as the molecule, how does the melting point read?
Answer: Its melting point is 75 to 80 °C.

Question: With `CN(CCOc1ccccc1C(C)(C)C)C(=O)c1n[nH]c2ncccc12` [Compound 24, N-(2-(2-(Tert-butyl)phenoxy)ethyl)-N-methyl-1H-pyrazolo[3,4-b]pyridine-3-carboxamide] as the molecule, how does the melting point read?
Answer: The melting point was 157 to 159 °C.

Question: Which melting point does the source give for `CN(CCOc1ccccc1C(C)(C)C)C(=O)c1nnc2n1CCOC2` [Compound 25, N-(2-(2-(Tert-butyl)phenoxy)ethyl)-N-methyl-6,8-dihydro-5H-[1,2,4]triazolo[3,4-c][1,4]oxazine-3-carboxamide] here?
Answer: Its melting point is 116 to 120 °C.

Question: With `CN(CCOc1ccccc1C(C)(C)C)C(=O)c1n[nH]c2c1CN(S(C)(=O)=O)C2` [Compound 28, N-(2-(2-(Tert-butyl)phenoxy)ethyl)-N-methyl-5-(methylsulfonyl)-1,4,5,6-tetrahydropyrrolo[3,4-c]pyrazole-3-carboxamide] as the molecule, how does the melting point read?
Answer: Its melting point is 125 to 133 °C.

Question: For `CN(CCOc1ccccc1C(C)(C)C)C(=O)c1n[nH]c2c1CN(S(C)(=O)=O)CC2` [Compound 30, N-(2-(2-(tert-butyl)phenoxy)ethyl)-N-methyl-5-(methylsulfonyl)-4,5,6,7-tetrahydro-1H-pyrazolo[4,3-c]pyridine-3-carboxamide], which melting point is on record?
Answer: The melting point was 226 to 230 °C.

Question: For `CN(CCOc1ccccc1C(C)(C)C)C(=O)c1n[nH]c2c1CCN(S(C)(=O)=O)C2` [Compound 33, N-(2-(2-(Tert-butyl)phenoxy)ethyl)-N-methyl-6-(methylsulfonyl)-4,5,6,7-tetrahydro-1H-pyrazolo[3,4-c]pyridine-3-carboxamide], which melting point is on record?
Answer: Its melting point is 233 to 237 °C.

Question: For `CN1CCc2c(C(=O)N(C)CCOc3ccccc3C(C)(C)C)n[nH]c2C1` [Compound 34, N-(2-(2-(Tert-butyl)phenoxy)ethyl)-N,6-dimethyl-4,5,6,7-tetrahydro-1H-pyrazolo[3,4-c]pyridine-3-carboxamide], which melting point is on record?
Answer: The melting point was 159 to 161 °C.

Question: With `COC(=O)c1cc(C)nc(N(C)CCOc2ccccc2C(C)(C)C)n1` [Compound 36, methyl 2-((2-(2-(tert-butyl)phenoxy)ethyl)(methyl)amino)-6-methylpyrimidine-4-carboxylate] as the molecule, how does the “antagonism of retinol-dependent RBP4-TTR interaction (HTRF)” value (“antagonism” below) [1] read?
Answer: Its value is “antagonize retinol-dependent RBP4-TTR interaction”.

Question: What about the “RBP4 binding (SPA)” value [2] of the same molecule?
Answer: Its value is “bind to RBP4”.

Question: With `Cc1cc(C(=O)O)nc(N(C)CCOc2ccccc2C(C)(C)C)n1` [Compound 37, 2-((2-(2-(tert-butyl)phenoxy)ethyl)(methyl)amino)-6-methylpyrimidine-4-carboxylic acid] as the molecule, how does the “antagonism” value [1] read?
Answer: The value was “antagonize retinol-dependent RBP4-TTR interaction”.

Question: What about the “RBP4 binding (SPA)” value [2] of the same molecule?
Answer: The value was “bind to RBP4”.

Question: Which results are given for `COC(=O)c1cc(C)nc(N(C)CCOc2cc(C(F)(F)F)cc(C(F)(F)F)c2)n1` [Compound 38, methyl 2-((2-(3,5-bis(trifluoromethyl)phenoxy)ethyl)(methyl)amino)-6-methylpyrimidine-4-carboxylate]?
Answer: antagonism of retinol-dependent RBP4-TTR interaction (HTRF) [1]: antagonize retinol-dependent RBP4-TTR interaction; RBP4 binding (SPA) [2]: bind to RBP4

Question: Which “antagonism” value [1] does the source give for `Cc1cc(C(=O)O)nc(N(C)CCOc2cc(C(F)(F)F)cc(C(F)(F)F)c2)n1` [Compound 39, 2-((2-(3,5-bis(trifluoromethyl)phenoxy)ethyl)(methyl)amino)-6-methylpyrimidine-4-carboxylic acid] here?
Answer: The value was “antagonize retinol-dependent RBP4-TTR interaction”.

Question: And the “RBP4 binding (SPA)” value [2]?
Answer: The value was “bind to RBP4”.

Question: Which “binding to RBP4” value [3] does the source give for `CC1=C(/C=C/C(C)=C/C=C/C(C)=C/C(=O)Nc2ccc(O)cc2)C(C)(C)CCC1` [fenretinide, N-(4-hydroxy-phenyl)retinamide] here?
Answer: Its value is “bind to RBP4”.

Question: What about the “displacement of all-trans retinol from RBP4” value [3] of the same molecule?
Answer: Its value is “displace all-trans retinol from RBP4”.

Question: And the “disruption of the RBP4-TTR interaction” value [4]?
Answer: The value was “disrupt the RBP4-TTR interaction”.

Question: What about the “serum RBP4 and retinol” value [5] of the same molecule?
Answer: The value was “reduce serum RBP4 and retinol”.

Question: And the A2E production ([6]; Abca4−/− mice, animal model of excessive bisretinoid accumulation)?
Answer: Its A2E production is “reduced A2E production”.

Question: And the “ocular all-trans retinol uptake” value ([6]; mouse, in vivo)?
Answer: Its value is “inhibit ocular all-trans retinol uptake”.

Question: What about the visual cycle ([6]; mouse, in vivo) of the same molecule?
Answer: The visual cycle was “slow down the visual cycle”.

Question: And the induction of apoptosis [7]?
Answer: Its induction of apoptosis is “extremely active inducer of apoptosis”.

Question: And the formation of hemangiosarcomas [8]?
Answer: The formation of hemangiosarcomas was “stimulate formation of hemangiosarcomas”.
